Common to all, as to assay type: functional
Test [1] deals with Staphylococcus aureus. Put plainly: Tested in vitro for inhibitory activity against gram positive bacteria Staphylococcus aureus MPR 5 strain.
A further test concerns Enterobacter cloacae. Put plainly: Tested in vitro for inhibitory activity against gram negative bacteria Enterobacter cloacae OMNFI 174 strain.
The next test has as its system Enterococcus faecalis. Put plainly: Tested in vitro for inhibitory activity against gram positive bacteria Streptococcus faecalis LEP Br strain.
Test [2] relates to Staphylococcus epidermidis. In words: Tested in vitro for inhibitory activity against gram positive bacteria Staphylococcus epidermidis CPHL A2 strain.
Test [3] relates to Escherichia coli. In words: Tested in vitro for inhibitory activity against gram negative bacteria Escherichia coli ISF 432 strain.
The next test concerns Klebsiella pneumoniae. In words: Tested in vitro for inhibitory activity against gram negative bacteria Klebsiella pneumoniae ATCC 10031 strain.
The next test relates to Pseudomonas aeruginosa. In words: Tested in vitro for inhibitory activity against gram negative bacteria Pseudomonas aeruginosa ATCC 9027 strain.
Test [4] relates to Staphylococcus aureus. In words: Tested in vitro for inhibitory activity against gram positive bacteria Staphylococcus aureus ATCC 6538 strain.
Test [5] deals with Acinetobacter calcoaceticus. Put plainly: Tested in vitro for inhibitory activity against gram negative bacteria Acinetobacter calcoaceticus OSMPV 113 strain.
The subject of another test is Providencia stuartii. Put plainly: Tested in vitro for inhibitory activity against gram negative bacteria Providencia stuartii CNUR 5 strain.
The test system of test [6] is Staphylococcus epidermidis. Put plainly: Tested in vitro for inhibitory activity against gram positive bacteria Staphylococcus epidermidis HCF berset C strain.
For the next test, the system named is Shigella. In words: Tested in vitro for inhibitory activity against gram negative bacteria Shigella enteritidis.
The subject of test [7] is Escherichia coli. Put plainly: Tested in vitro for inhibitory activity against gram negative bacteria Escherichia coli ATCC 8739 strain.

Converted amounts (≈) assume the structure as drawn.

As a reminder, the MIC is the least concentration at which growth counts as inhibited. Consider `Nc1cc2c(=O)c(C(=O)O)cn(C3CC3)c2cc1N1CCSC1`, for which the MIC against Staphylococcus aureus [1] was 128 µg/mL (≈ 386 µM); with Enterobacter cloacae, 16 µg/mL (≈ 48.3 µM); against Enterococcus faecalis it was 128 µg/mL (≈ 386 µM); in [2] it was 64 µg/mL (≈ 193 µM); in the test on Escherichia coli [3], 1 µg/mL (≈ 3.02 µM); in the test with Klebsiella pneumoniae, 0.5 µg/mL (≈ 1.51 µM). In addition, the minimum inhibitory concentration (MIC) is 128 µg/mL (≈ 386 µM) against Pseudomonas aeruginosa; 64 µg/mL (≈ 193 µM) against Staphylococcus aureus [4]; 128 µg/mL (≈ 386 µM) in test [5]; 128 µg/mL (≈ 386 µM) with Providencia stuartii; 64 µg/mL (≈ 193 µM) in [6]; 32 µg/mL (≈ 96.6 µM) against Shigella. In the test on Escherichia coli [7], this compound had an MIC of 0.5 µg/mL (≈ 1.51 µM).

For `CC(C)(C)n1cc(C(=O)O)c(=O)c2cc(N)c(N3CCc4ccccc43)cc21`, the minimum inhibitory concentration (MIC) against Staphylococcus aureus [1] is 2 µg/mL (≈ 5.3 µM); against Enterobacter cloacae it was 8 µg/mL (≈ 21.2 µM); with Enterococcus faecalis, 64 µg/mL (≈ 170 µM); in [2], 4 µg/mL (≈ 10.6 µM); against Escherichia coli [3] it was 0.12 µg/mL (≈ 0.318 µM); in the test with Klebsiella pneumoniae, 0.12 µg/mL (≈ 0.318 µM). In addition, the MIC is 32 µg/mL (≈ 84.8 µM) in the test with Pseudomonas aeruginosa; 2 µg/mL (≈ 5.3 µM) in the test with Staphylococcus aureus [4]; 8 µg/mL (≈ 21.2 µM) in test [5]; 4 µg/mL (≈ 10.6 µM) against Providencia stuartii; 4 µg/mL (≈ 10.6 µM) in [6]; 8 µg/mL (≈ 21.2 µM) against Shigella. Further, in the test with Escherichia coli [7], the lowest concentration to inhibit growth (MIC) was 0.12 µg/mL (≈ 0.318 µM).

Turning to `CC(C)(C)n1cc(C(=O)O)c(=O)c2cc(N)c(N3CCN(c4ccccn4)CC3)cc21`, the minimum inhibitory concentration (MIC) in the test on Staphylococcus aureus [1] was found to be 1 µg/mL (≈ 2.37 µM); against Enterobacter cloacae, 64 µg/mL (≈ 152 µM); against Enterococcus faecalis it was 16 µg/mL (≈ 38 µM); in test [2], 1 µg/mL (≈ 2.37 µM); with Escherichia coli [3] it was 0.5 µg/mL (≈ 1.19 µM); with Klebsiella pneumoniae, 0.25 µg/mL (≈ 0.593 µM). Moreover, the minimal inhibitory concentration (MIC) in the test with Pseudomonas aeruginosa is 128 µg/mL (≈ 304 µM); with Staphylococcus aureus [4], 1 µg/mL (≈ 2.37 µM); in [5] it was 1 µg/mL (≈ 2.37 µM); in the test on Providencia stuartii, 128 µg/mL (≈ 304 µM); in [6] it was 2 µg/mL (≈ 4.74 µM); with Shigella, 64 µg/mL (≈ 152 µM). In the test on Escherichia coli [7], this compound gave an MIC of 0.5 µg/mL (≈ 1.19 µM).

As to `Nc1cc2c(=O)c(C(=O)O)cn(C3CC3)c2cc1N1CCCC1`, the minimum inhibitory concentration (MIC) against Staphylococcus aureus [1] amounted to 128 µg/mL (≈ 408 µM); in the test with Enterobacter cloacae it was 8 µg/mL (≈ 25.5 µM); in the test on Enterococcus faecalis it was 128 µg/mL (≈ 408 µM); in [2], 128 µg/mL (≈ 408 µM); against Escherichia coli [3] it was 0.25 µg/mL (≈ 0.798 µM); in the test with Klebsiella pneumoniae, 0.25 µg/mL (≈ 0.798 µM). Further, the minimum inhibitory concentration (MIC) was 128 µg/mL (≈ 408 µM) in the test on Pseudomonas aeruginosa; 128 µg/mL (≈ 408 µM) in the test on Staphylococcus aureus [4]; 128 µg/mL (≈ 408 µM) in [5]; 128 µg/mL (≈ 408 µM) in the test with Providencia stuartii; 128 µg/mL (≈ 408 µM) in test [6]; 16 µg/mL (≈ 51.1 µM) against Shigella. Besides, in the test with Escherichia coli [7], the MIC is 0.25 µg/mL (≈ 0.798 µM).

`Nc1cc2c(=O)c(C(=O)O)cn(C3CC3)c2cc1N1CCC(N)C1` (centres undefined): the MIC was determined as 128 µg/mL (≈ 390 µM) against Staphylococcus aureus [1]; 16 µg/mL (≈ 48.7 µM) against Enterobacter cloacae; 128 µg/mL (≈ 390 µM) against Enterococcus faecalis; 128 µg/mL (≈ 390 µM) in test [2]; 0.5 µg/mL (≈ 1.52 µM) with Escherichia coli [3]; 1 µg/mL (≈ 3.05 µM) in the test on Klebsiella pneumoniae. In addition, the minimum inhibitory concentration (MIC) in the test on Pseudomonas aeruginosa is 16 µg/mL (≈ 48.7 µM); against Staphylococcus aureus [4], 128 µg/mL (≈ 390 µM); in test [5], 128 µg/mL (≈ 390 µM); against Providencia stuartii, 128 µg/mL (≈ 390 µM); in test [6] it was 128 µg/mL (≈ 390 µM); against Shigella it was 16 µg/mL (≈ 48.7 µM). In the test on Escherichia coli [7], this compound displayed an MIC of 1 µg/mL (≈ 3.05 µM).

With `Nc1cc2c(=O)c(C(=O)O)cn(C3CC3)c2cc1N1CCC(O)CC1`, the MIC in the test on Staphylococcus aureus [1] worked out at 4 µg/mL (≈ 11.6 µM); in the test with Enterobacter cloacae, 2 µg/mL (≈ 5.82 µM); against Enterococcus faecalis it was 8 µg/mL (≈ 23.3 µM); in [2], 2 µg/mL (≈ 5.82 µM); against Escherichia coli [3] it was 0.03 µg/mL (≈ 0.0874 µM); against Klebsiella pneumoniae it was 0.03 µg/mL (≈ 0.0874 µM). The MIC is 8 µg/mL (≈ 23.3 µM) against Pseudomonas aeruginosa; 4 µg/mL (≈ 11.6 µM) in the test on Staphylococcus aureus [4]; 2 µg/mL (≈ 5.82 µM) in [5]; 8 µg/mL (≈ 23.3 µM) with Providencia stuartii; 4 µg/mL (≈ 11.6 µM) in test [6]; 2 µg/mL (≈ 5.82 µM) in the test on Shigella. In the test on Escherichia coli [7], this compound displayed a minimal inhibitory concentration (MIC) of 0.03 µg/mL (≈ 0.0874 µM).

In the case of `CC(=O)NC1CCN(c2cc3c(cc2N)c(=O)c(C(=O)O)cn3C2CC2)C1` (centres undefined), the minimum inhibitory concentration (MIC) came to 128 µg/mL (≈ 346 µM) with Staphylococcus aureus [1]; 128 µg/mL (≈ 346 µM) in the test on Enterobacter cloacae; 128 µg/mL (≈ 346 µM) in the test with Enterococcus faecalis; 128 µg/mL (≈ 346 µM) in test [2]; 4 µg/mL (≈ 10.8 µM) against Escherichia coli [3]; 4 µg/mL (≈ 10.8 µM) against Klebsiella pneumoniae. Also, the MIC (with Pseudomonas aeruginosa; in the test on Staphylococcus aureus [4]; in test [5]; against Providencia stuartii; in test [6]; with Shigella) was 128 µg/mL (≈ 346 µM) in each case. Moreover, the MIC in the test on Escherichia coli [7] came out at 4 µg/mL (≈ 10.8 µM).

Consider `CC1CN(c2cc3c(cc2N)c(=O)c(C(=O)O)cn3C2CC2)CCN1` (centres undefined), for which the MIC with Staphylococcus aureus [1] amounted to 16 µg/mL (≈ 46.7 µM); in the test with Enterobacter cloacae, 0.25 µg/mL (≈ 0.73 µM); in the test on Enterococcus faecalis, 32 µg/mL (≈ 93.5 µM); in [2], 4 µg/mL (≈ 11.7 µM); against Escherichia coli [3] it was 0.03 µg/mL (≈ 0.0876 µM); in the test with Klebsiella pneumoniae it was 0.03 µg/mL (≈ 0.0876 µM). Further, the minimal inhibitory concentration (MIC) is 2 µg/mL (≈ 5.84 µM) against Pseudomonas aeruginosa; 16 µg/mL (≈ 46.7 µM) against Staphylococcus aureus [4]; 16 µg/mL (≈ 46.7 µM) in [5]; 16 µg/mL (≈ 46.7 µM) in the test with Providencia stuartii; 4 µg/mL (≈ 11.7 µM) in [6]; 0.25 µg/mL (≈ 0.73 µM) with Shigella. This compound also displayed an MIC in the test on Escherichia coli [7] of 0.03 µg/mL (≈ 0.0876 µM).

Source of the values: ChEMBL document CHEMBL1128274, “6-Aminoquinolones: a new class of quinolone antibacterials?” (1995).
